Measurements: patent US5200426A, “Inhibitors of neutral endopeptidase/CALLA as chemotherapeutic agents” (Board of Regents, The University of Texas, priority 1990, dated 1993)
“Also recorded” adds a separate entry of the source. Square brackets hold non-standard residues; d marks the D form. Peptide text beside a SMILES is read from it. * marks the point of attachment. BrAc = O=C(CBr)*

Legend:
[1] = molecular target: neutral endopeptidase 24.11 (NEP); assay: Competitive inhibition of neutral endopeptidase (NEP); type: biochemical; conditions: read-out: Ki (competitive inhibitor)
Text: (§1) The efficacy of endopeptidase inhibitors may be assessed by determining cell numbers and the percent of viable cells (e.g., assessed by trypan blue exclusion) as a function of time in culture in the presence and absence of the endopeptidase inhibitors. In addition the level of neutral endopeptidase activity will be measured and correlated with these parameters. Since the enzyme is on the cell surface its activity can be measured by simply adding substrate to the cell culture. The kinetics of inactivation of purified enzyme can also be assessed. A graphical analysis of the inactivation constant (kobs) versus the inhibitor concentration can be plotted. If the inhibitor binds to the active site of the enzyme this graph should be hyperbolic. The data can then be analyzed in a double reciprocal plot of 1/kobs versus 1/[Inhibitor]. This should yield a straight line from which the dissociation constant for the inhibitor (Ki) and the maximal rate of inactivation k(inact) can be obtained. […] This type of analysis has previously been conducted to characterize the reaction of both phenylglyoxal and N-bromoacetyl-D-Leu-Gly with the enzyme.
NEP: glutaryl-Ala-Ala-Phe-MNA →glutaryl-Ala-Ala + Phe-MNA Aminopeptidase: Phe-MNA →Phe + MNA MNA =4-methoxy-2-naphthylamine

[2] = tested on: neutral endopeptidase 24.11 (NEP); assay: Affinity labelling / irreversible inactivation of NEP; type: biochemical
Text: as §1

[3] = tested on: Nalm-6 cells (CALLA+ human leukemic cell line); assay: Growth of Nalm-6 cells (viable cell counts daily); type: cell-based; conditions: for growth of Nalm-6 cells: bolus or daily addition, FIG. 4; for growth of Nalm-6 cells in conditioned media: 50-50 mixture of fresh media and media from a five-day culture, FIG. 5; for cell growth of Nalm-6: nanomolar to micromolar concentrations, FIG. 1 and 3
Procedure: FIG. 1--Effect of NEP Inhibitors on the Growth of Nalm-6, A2/3, and J558 Cell Lines. The two NEP inhibitors phosphoramidon (1 μM) and carboxyphenylethyl-Phe-β-Ala (20 μM) were added to cells plated in quadruplicate at a density of 100,000 cells/ml in 24 well microtiter plates. The number of viable cells was determined daily. FIG. 3--Correlation of Cell Growth with NEP Activity. Nalm-6 cells were treated with 10 nM phosphoramidon added either as a bolus (circles) or daily (triangles). Cells were initially plated at 200,000 cells/ml. Control cells without added inhibitor are shown as squares. Aliquots were taken daily for determining cell density. To the remainder of the sample was added glutaryl-[…] and NEP activity determined. […] Cells counts were conducted daily. FIG. 5--The Effect of NEP Inhibitors on Nalm-6 Cells Grown in Fresh or Conditioned Media. Nalm-6 cells were grown in fresh media or a 50--50 mixture of fresh media and media taken from a five-day culture. The pH of the conditioned media was adjusted to that of the fresh media. Cell counts were performed daily. The efficacy of endopeptidase inhibitors may be assessed by determining cell numbers and the percent of viable cells (e.g., assessed by trypan blue exclusion) as a function of time in culture in the presence and absence of the endopeptidase inhibitors. In addition the level of neutral endopeptidase activity will be measured and correlated with these parameters. Since the enzyme is on the cell surface its activity can be measured by simply adding substrate to the cell culture. The kinetics of inactivation of purified enzyme can also be assessed. A graphical analysis of the inactivation constant (kobs) versus the inhibitor concentration can be plotted. If the inhibitor binds to the active site of the enzyme this graph should be hyperbolic. The data can then be analyzed in a double reciprocal plot of 1/kobs versus 1/[Inhibitor]. This should yield a straight line from which the dissociation constant for the inhibitor (Ki) and the maximal rate of inactivation k(inact) can be obtained. […] This type of analysis has previously been conducted to characterize the reaction of both phenylglyoxal and N-bromoacetyl-D-Leu-Gly with the enzyme. […] Nalm-6 and Nall-1 are leukemic cell lines generally representative of CALLA+ lymphoblastic leukemias. […] The number of viable cells was determined daily. In FIG. 2, the NEP inhibitors phosphoramidon (PA;10 nM) and carboxyphenylethyl-Phe-β-Ala (10 μM) were added to Nall-1 and, in a separate experiment, to SMS-SB cells plated at a density of 200,000 cells/ml. The inhibitors were added either once on Day 0 as a bolus (closed circle and square) or daily (open circle or triangle). The number of viable cells was determined daily. The inhibition of cell growth by these NEP specific inhibitors appeared somewhat transient and correlated with the recovery of NEP activity. […] Control cells without added inhibitor are shown as squares. Cells were initially plated at a density of 200,000 cells/ml. Aliquots were taken daily for determining cell density. To the remainder of the sample was added glutaryl-[…] and NEP activity was determined.

[4] = tested on: SMS-SB cells (CALLA- human leukemic cell line); assay: Growth of SMS-SB cells (viable cell counts daily); type: cell-based; conditions: 10 μM, bolus or daily addition; FIG. 4
Procedure: FIG. 2--Effect of NEP Inhibitors on the Growth of Nall-1 and SMS-SB Cell Lines. The NEP inhibitors phosphoramidon (10 nM) and carboxyphenylethyl-Phe-β-Ala(10 μM) were added to cells plated at a density of 200,000 cells/ml. The inhibitors were added either once on Day 0 as a bolus (closed circle and square) or daily (open circle or triangle). The number of viable cells was determined daily. […] Cells counts were conducted daily. […] Nalm-6 and Nall-1 are leukemic cell lines generally representative of CALLA+ lymphoblastic leukemias. […] The number of viable cells was determined daily. In FIG. 2, the NEP inhibitors phosphoramidon (PA;10 nM) and carboxyphenylethyl-Phe-β-Ala (10 μM) were added to Nall-1 and, in a separate experiment, to SMS-SB cells plated at a density of 200,000 cells/ml. The inhibitors were added either once on Day 0 as a bolus (closed circle and square) or daily (open circle or triangle). The number of viable cells was determined daily.

[5] = tested on: Nall-1 cells (CALLA+ human leukemic cell line); assay: Growth of Nall-1 cells (viable cell counts daily); type: cell-based; conditions: nanomolar to micromolar concentrations; FIG. 2
Procedure: FIG. 2--Effect of NEP Inhibitors on the Growth of Nall-1 and SMS-SB Cell Lines. The NEP inhibitors phosphoramidon (10 nM) and carboxyphenylethyl-Phe-β-Ala(10 μM) were added to cells plated at a density of 200,000 cells/ml. The inhibitors were added either once on Day 0 as a bolus (closed circle and square) or daily (open circle or triangle). The number of viable cells was determined daily. […] Nalm-6 and Nall-1 are leukemic cell lines generally representative of CALLA+ lymphoblastic leukemias. […] The number of viable cells was determined daily. In FIG. 2, the NEP inhibitors phosphoramidon (PA;10 nM) and carboxyphenylethyl-Phe-β-Ala (10 μM) were added to Nall-1 and, in a separate experiment, to SMS-SB cells plated at a density of 200,000 cells/ml. The inhibitors were added either once on Day 0 as a bolus (closed circle and square) or daily (open circle or triangle). The number of viable cells was determined daily.

[6] = molecular target: T1, NEP (CALLA) on intact Nalm-6 cells (Homo sapiens, UniProt P08473); assay: NEP activity of intact cells (glutaryl-Ala-Ala-Phe-MNA substrate); type: cell-based
T1 construct: NEP is a normal constituent of Nalm-6 cells; endogenous in cells; host or cells: Nalm-6 (human CALLA+ leukemic cell line)
Procedure: FIG. 3--Correlation of Cell Growth with NEP Activity. Nalm-6 cells were treated with 10 nM phosphoramidon added either as a bolus (circles) or daily (triangles). Cells were initially plated at 200,000 cells/ml. Control cells without added inhibitor are shown as squares. Aliquots were taken daily for determining cell density. To the remainder of the sample was added glutaryl-[…] and NEP activity determined. The efficacy of endopeptidase inhibitors may be assessed by determining cell numbers and the percent of viable cells (e.g., assessed by trypan blue exclusion) as a function of time in culture in the presence and absence of the endopeptidase inhibitors. In addition the level of neutral endopeptidase activity will be measured and correlated with these parameters. Since the enzyme is on the cell surface its activity can be measured by simply adding substrate to the cell culture. The kinetics of inactivation of purified enzyme can also be assessed. A graphical analysis of the inactivation constant (kobs) versus the inhibitor concentration can be plotted. […] The data can then be analyzed in a double reciprocal plot of 1/kobs versus 1/[Inhibitor]. […] To the remainder of the sample was added glutaryl-[…] and NEP activity was determined. […] The NEP activity of intact cells in the presence of the inhibitors has been measured during the course of experiments similar to those shown in FIG. 1. […]

[7] = tested on: L3 myoblast cell line; assay: L3 myoblast cell line, formation of myotubules; type: cell-based

T1 sequence (P08473 whole entry): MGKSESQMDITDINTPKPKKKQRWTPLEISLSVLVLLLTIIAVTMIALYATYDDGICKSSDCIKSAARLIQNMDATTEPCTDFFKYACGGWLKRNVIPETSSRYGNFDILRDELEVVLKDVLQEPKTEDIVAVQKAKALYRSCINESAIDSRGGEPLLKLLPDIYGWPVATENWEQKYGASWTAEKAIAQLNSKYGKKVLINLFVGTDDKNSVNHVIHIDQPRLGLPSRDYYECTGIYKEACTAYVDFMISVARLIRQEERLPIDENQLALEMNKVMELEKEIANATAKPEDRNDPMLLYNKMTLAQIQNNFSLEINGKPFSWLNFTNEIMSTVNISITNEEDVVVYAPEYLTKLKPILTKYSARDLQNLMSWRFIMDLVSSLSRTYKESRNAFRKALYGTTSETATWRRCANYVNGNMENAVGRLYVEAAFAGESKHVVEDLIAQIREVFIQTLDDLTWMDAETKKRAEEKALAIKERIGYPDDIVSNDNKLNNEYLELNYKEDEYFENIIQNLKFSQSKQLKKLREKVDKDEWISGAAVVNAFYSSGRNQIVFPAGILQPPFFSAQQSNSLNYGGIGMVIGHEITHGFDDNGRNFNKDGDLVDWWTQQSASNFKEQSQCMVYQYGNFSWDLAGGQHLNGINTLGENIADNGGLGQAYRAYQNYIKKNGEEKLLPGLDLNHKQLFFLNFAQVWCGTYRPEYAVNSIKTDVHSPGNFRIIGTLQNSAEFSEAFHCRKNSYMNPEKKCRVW

| SMILES | irreversible inhibition / affinity labelling of NEP [2] | growth of Nalm-6 cells ([3]; 10 μM) | growth of CALLA- SMS leukemic cell line [4] | growth of Nalm-6 cells in conditioned media [3] | cell growth of Nalm-6 [3] | cell growth of Nall-1 [5] | enzyme (NEP) activity in conditioned vs fresh media [6] | further results |
| --- | --- | --- | --- | --- | --- | --- | --- | --- |
| CC(C)C[C@@H](NC(=O)CBr)C(=O)NCC(=O)O [BADLG, N-bromoacetyl-D-Leu-Gly] (BrAc-[dL]-Gly-OH) | irreversible inhibitor |  |  |  |  |  |  | Ki [1]: 5 mM; mol incorporated per mol of enzyme ([2]; irreversible inhibition): 1 mol per mol of enzyme |
| C[C@H](NC(=O)[C@@H](Cc1ccccc1)NC(=O)CBr)C(=O)O [bromoacetyl-D-Phe-Ala] | not an affinity label of NEP |  |  |  |  |  |  |  |
| O=C(O)CNC(=O)C(CS)Cc1ccccc1 (stereo not shown) [thiorphan, HS--CH2 --CH(CH2 --.phi.)--CO--Gly] |  | inhibits the growth | neither thiorphan nor captopril affect the growth |  |  |  |  |  |
| O=C(O)CCNC(=O)[C@H](Cc1ccccc1)NC(Cc1ccccc1)C(=O)O (stereo partly drawn) [carboxyphenylethyl-Phe-β-Ala] |  |  |  | the cells grow | cell growth was inhibited; also recorded: inhibit cell growth | cell growth was inhibited; also recorded: inhibit cell growth | just as effectively inhibited in the conditioned media as in the fresh media |  |
| C[C@H](CS)C(=O)N1CCC[C@H]1C(=O)O [captopril, HS--CH2 --CH(CH3)--CO--Pro] |  | without effect | neither thiorphan nor captopril affect the growth |  |  |  |  |  |
| CC(C)C[C@H](NP(=O)(O)O[C@@H]1O[C@@H](C)[C@H](O)[C@@H](O)[C@H]1O)C(=O)N[C@@H](Cc1c[nH]c2ccccc12)C(=O)O [phosphoramidon] |  |  |  | the cells grow | cell growth was inhibited; also recorded: inhibit cell growth | cell growth was inhibited; also recorded: inhibit cell growth | just as effectively inhibited in the conditioned media as in the fresh media | duration of inhibition of cell growth at higher inhibitor concentration ([3]; 10 μM): growth is inhibited during the entire course of the experiment; growth of Nalm-6 cells in dialyzed conditioned media ([3]; conditioned media dialyzed against fresh media, cut-off 14,000): cell growth was once again inhibited; effect on L3 myoblast cell line (formation of myotubules) [7]: unaffected |
